# Numbers after ± are expanded uncertainties.
# Details: for surface tension liquid-gas: Pendant drop shape; for mass density: 101.33 kPa, Liquid, Vibrating tube method
surface tension liquid-gas (298.15 K) [mN/m],mass density (298.15 K) [kg/m3],surface tension liquid-gas (303.15 K) [mN/m],mass density (303.15 K) [kg/m3],surface tension liquid-gas (313.15 K) [mN/m],mass density (313.15 K) [kg/m3],surface tension liquid-gas (323.15 K) [mN/m],mass density (323.15 K) [kg/m3],surface tension liquid-gas (333.15 K) [mN/m],mass density (333.15 K) [kg/m3],surface tension liquid-gas (343.15 K) [mN/m],mass density (343.15 K) [kg/m3],Structure (SMILES)
54.5 ± 0.6,1128.47 ± 8,53.6 ± 0.6,1125.91 ± 8,51.9 ± 0.6,1119.35 ± 8,50.5 ± 0.5,1112.78 ± 8,48.4 ± 0.5,1107.1 ± 8,46.8 ± 0.5,1100.5 ± 8,CCCCn1cc[n+](C)c1.NCC(=O)[O-] [1-butyl-3-methylimidazolium glycinate]
49.7 ± 0.5,1129.32 ± 8,49.2 ± 0.5,1125.95 ± 8,48.4 ± 0.5,1118.97 ± 8,47.6 ± 0.5,1111.78 ± 8,46.8 ± 0.5,1104.3 ± 8,46.1 ± 0.5,1097.73 ± 8,CCCCn1cc[n+](C)c1.O=C([O-])CO [1-butyl-3-methylimidazolium glycolate]
42.7 ± 0.5,1100.2 ± 8,42.3 ± 0.5,1096.63 ± 8,41.9 ± 0.5,1089.79 ± 8,41.3 ± 0.5,1083.17 ± 8,40.6 ± 0.5,1076.42 ± 8,40 ± 0.5,1069.75 ± 8,CC(O)C(=O)[O-].CCCCn1cc[n+](C)c1 [1-butyl-3-methylimidazolium lactate]
40.1 ± 0.5,1105.25 ± 8,39.7 ± 0.5,1102.19 ± 8,39.1 ± 0.4,1095.87 ± 8,38.7 ± 0.4,1089.66 ± 8,38.3 ± 0.4,1083.46 ± 8,37.8 ± 0.4,1077.22 ± 8,CCCC[n+]1ccn(C)c1.O=C([O-])c1ccccc1 [3-butyl-1-methylimidazolium benzoate]
